The test system of the test is NF-κB. Kind of test: NF-κB luciferase reporter assay in LPS-stimulated RAW 264.7 macrophages. The test is classed as cell-based. The settings on record: Mus musculus, RAW264.7; RAW 264.7 cells with 3× NFkB response element luciferase reporter; 2 hour pretreatment, 200 ng/ml LPS for 3 hours; 6 dose point titrations in triplicate. The protocol:
RAW 264.7 cells stably expressing a 3× NFkB response elemement-drive luciferase reporter were seeded into 96 well plates in sera-free medium (Optimem) 18 hours prior to compound application. Compounds of the invention were prepared by first making 100 mM stock solutions in EtOH. Stock solutions were then diluted 1:100 in low LPS FBS (Gemini BenchMark 100-106), mixed vigorously and allowed to incubate at room temperature for 30 minutes. 1:2 serial dilutions were then made in FBS supplemented with 1% EtOH, mixed vigorously, and again allowed to incubate at room temperature for 30 minutes before adding to RAW 264.7 reporter cells (final concentrations: 10% FBS, 100 uM highest compound dilution, 0.1% EtOH) for a 2 hour pretreatment prior to stimulation with LPS. Cells were then stimulated with 200 ng/ml LPS or vehicle control for 3 hours in the presence of the compounds of the invention. A set of six vehicles was left unstimulated with LPS in order to measure the assay floor. […] After the 3 h incubation period with LPS, cell viability was measured by reading fluorescence (excitation 550 nm, emission 595 nm) with a Perkin Elmer Victor V plate reader. […] Luciferase activity was measured with the Perkin Elmer Victor V plate reader. NF-κB activity was expressed as a percent of the vehicle control wells (stimulated with LPS). […]

Each structure is given as a SMILES string.

`CC/C=C\C/C=C\C/C=C\C/C=C\C/C=C\C/C=C\CCC(=O)NCCNC(=O)Oc1ccc2c(C(=O)c3ccc(OCCN4CCOCC4)cc3)c(-c3ccc(O)cc3)sc2c1` [III-4, 2-(4-hydroxyphenyl)-3-(4-(2-morpholinoethoxy)benzoyl)benzo[b]thiophen-6-yl 2-(4Z,7Z,10Z,13Z,16Z,19Z)-docosa-4,7,10,13,16,19-hexaenamidoethylcarbamate]: the IC50 is ~50 µM.

These data come from US20110212958A1, “FATTY ACID RALOXIFENE DERIVATIVES AND THEIR USES” (CATABASIS PHARMACEUTICALS, INC., priority 2010, published 2011).
